In patent publication US12552775B2, “Compounds and uses thereof” (Foghorn Therapeutics Inc., priority 2020, dated 2026):

Assays:
[1] = target: T1, HiBit-BRM fusion protein (Homo sapiens, UniProt P51531); assay: HiBiT-BRM cell-based degradation assay (Nano-Glo HiBiT Lytic Detection, 24 h); details: stable HeLa cell line expressing HiBiT-BRM, top dose 30 μM
T1 construct: expressed in transfected cells
Summary of the method: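 Stable HiBiT-BRM HeLa cells were treated with 10-point 3-fold serial dilutions (30 μM final top dose, duplicate) for 24 h, then lysed with LgBiT-containing detection reagent and luminescence read. Degradation % was normalised to DMSO (high control) and 2 μM reference BRM/BRG1 degrader (low control).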

[2] = target: T2, HiBit-BRG1 fusion protein (Homo sapiens, UniProt P51532); assay: HiBiT-BRG1 cell-based degradation assay (Nano-Glo HiBiT Lytic Detection, 24 h); details: stable HeLa cell line expressing HiBit-BRG1 and LgBit, top dose 30 μM, read-out: BRG1 HiBit Degradation Maximum (%)
T2 construct: expressed in transfected cells
Summary of the method: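 HeLa cells stably expressing HiBiT-BRG1 plus LgBiT were treated with 10-point 3-fold compound dilutions (top 30 μM final) for 24 h. Lytic Nano-Glo HiBiT luminescence was read. % degradation was normalised between DMSO (high control) and 2 μM of a reference BRM/BRG1 degrader (low control).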

T1 sequence (P51531 whole entry, the tested form may be a part): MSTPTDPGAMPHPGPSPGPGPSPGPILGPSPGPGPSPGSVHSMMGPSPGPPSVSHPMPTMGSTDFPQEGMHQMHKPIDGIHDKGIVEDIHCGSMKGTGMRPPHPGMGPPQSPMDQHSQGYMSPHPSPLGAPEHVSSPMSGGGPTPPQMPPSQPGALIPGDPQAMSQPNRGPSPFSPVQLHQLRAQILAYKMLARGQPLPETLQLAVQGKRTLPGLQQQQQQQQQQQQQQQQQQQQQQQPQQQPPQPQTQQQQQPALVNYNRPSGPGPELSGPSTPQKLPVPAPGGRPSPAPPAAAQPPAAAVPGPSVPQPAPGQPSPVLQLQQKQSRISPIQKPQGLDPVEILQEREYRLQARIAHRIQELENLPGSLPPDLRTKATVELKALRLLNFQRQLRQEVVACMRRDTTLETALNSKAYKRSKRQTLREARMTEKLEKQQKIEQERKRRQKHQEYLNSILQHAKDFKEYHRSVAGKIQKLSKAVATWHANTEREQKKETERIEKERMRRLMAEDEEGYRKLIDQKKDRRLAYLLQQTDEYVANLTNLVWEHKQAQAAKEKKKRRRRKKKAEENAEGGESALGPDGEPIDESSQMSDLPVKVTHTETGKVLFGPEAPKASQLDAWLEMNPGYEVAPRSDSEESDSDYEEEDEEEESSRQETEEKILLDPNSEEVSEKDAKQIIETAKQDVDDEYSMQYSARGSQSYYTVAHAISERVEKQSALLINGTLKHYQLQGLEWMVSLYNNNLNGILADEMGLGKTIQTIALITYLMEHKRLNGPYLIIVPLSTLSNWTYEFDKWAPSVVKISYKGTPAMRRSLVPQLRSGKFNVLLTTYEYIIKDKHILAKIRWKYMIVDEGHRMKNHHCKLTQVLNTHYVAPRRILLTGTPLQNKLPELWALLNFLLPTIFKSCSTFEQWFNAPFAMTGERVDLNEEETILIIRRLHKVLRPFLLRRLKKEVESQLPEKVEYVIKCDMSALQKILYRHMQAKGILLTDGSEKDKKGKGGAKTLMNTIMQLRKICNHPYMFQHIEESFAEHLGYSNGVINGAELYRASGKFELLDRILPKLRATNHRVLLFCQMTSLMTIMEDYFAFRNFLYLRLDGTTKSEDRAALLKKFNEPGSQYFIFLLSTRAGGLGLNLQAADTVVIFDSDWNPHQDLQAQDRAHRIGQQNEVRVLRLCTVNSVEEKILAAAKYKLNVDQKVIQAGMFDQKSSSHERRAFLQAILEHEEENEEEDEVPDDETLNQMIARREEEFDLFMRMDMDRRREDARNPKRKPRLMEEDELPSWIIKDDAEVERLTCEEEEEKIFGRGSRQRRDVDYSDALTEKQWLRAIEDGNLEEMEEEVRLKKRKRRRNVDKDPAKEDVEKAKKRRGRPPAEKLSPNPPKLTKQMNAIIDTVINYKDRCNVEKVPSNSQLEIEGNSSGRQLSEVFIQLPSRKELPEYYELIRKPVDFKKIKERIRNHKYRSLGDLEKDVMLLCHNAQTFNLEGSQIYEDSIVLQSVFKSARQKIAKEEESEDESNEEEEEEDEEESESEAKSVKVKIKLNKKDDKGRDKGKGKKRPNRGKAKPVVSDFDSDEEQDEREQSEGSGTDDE
T2 sequence (P51532 whole entry, the tested form may be a part): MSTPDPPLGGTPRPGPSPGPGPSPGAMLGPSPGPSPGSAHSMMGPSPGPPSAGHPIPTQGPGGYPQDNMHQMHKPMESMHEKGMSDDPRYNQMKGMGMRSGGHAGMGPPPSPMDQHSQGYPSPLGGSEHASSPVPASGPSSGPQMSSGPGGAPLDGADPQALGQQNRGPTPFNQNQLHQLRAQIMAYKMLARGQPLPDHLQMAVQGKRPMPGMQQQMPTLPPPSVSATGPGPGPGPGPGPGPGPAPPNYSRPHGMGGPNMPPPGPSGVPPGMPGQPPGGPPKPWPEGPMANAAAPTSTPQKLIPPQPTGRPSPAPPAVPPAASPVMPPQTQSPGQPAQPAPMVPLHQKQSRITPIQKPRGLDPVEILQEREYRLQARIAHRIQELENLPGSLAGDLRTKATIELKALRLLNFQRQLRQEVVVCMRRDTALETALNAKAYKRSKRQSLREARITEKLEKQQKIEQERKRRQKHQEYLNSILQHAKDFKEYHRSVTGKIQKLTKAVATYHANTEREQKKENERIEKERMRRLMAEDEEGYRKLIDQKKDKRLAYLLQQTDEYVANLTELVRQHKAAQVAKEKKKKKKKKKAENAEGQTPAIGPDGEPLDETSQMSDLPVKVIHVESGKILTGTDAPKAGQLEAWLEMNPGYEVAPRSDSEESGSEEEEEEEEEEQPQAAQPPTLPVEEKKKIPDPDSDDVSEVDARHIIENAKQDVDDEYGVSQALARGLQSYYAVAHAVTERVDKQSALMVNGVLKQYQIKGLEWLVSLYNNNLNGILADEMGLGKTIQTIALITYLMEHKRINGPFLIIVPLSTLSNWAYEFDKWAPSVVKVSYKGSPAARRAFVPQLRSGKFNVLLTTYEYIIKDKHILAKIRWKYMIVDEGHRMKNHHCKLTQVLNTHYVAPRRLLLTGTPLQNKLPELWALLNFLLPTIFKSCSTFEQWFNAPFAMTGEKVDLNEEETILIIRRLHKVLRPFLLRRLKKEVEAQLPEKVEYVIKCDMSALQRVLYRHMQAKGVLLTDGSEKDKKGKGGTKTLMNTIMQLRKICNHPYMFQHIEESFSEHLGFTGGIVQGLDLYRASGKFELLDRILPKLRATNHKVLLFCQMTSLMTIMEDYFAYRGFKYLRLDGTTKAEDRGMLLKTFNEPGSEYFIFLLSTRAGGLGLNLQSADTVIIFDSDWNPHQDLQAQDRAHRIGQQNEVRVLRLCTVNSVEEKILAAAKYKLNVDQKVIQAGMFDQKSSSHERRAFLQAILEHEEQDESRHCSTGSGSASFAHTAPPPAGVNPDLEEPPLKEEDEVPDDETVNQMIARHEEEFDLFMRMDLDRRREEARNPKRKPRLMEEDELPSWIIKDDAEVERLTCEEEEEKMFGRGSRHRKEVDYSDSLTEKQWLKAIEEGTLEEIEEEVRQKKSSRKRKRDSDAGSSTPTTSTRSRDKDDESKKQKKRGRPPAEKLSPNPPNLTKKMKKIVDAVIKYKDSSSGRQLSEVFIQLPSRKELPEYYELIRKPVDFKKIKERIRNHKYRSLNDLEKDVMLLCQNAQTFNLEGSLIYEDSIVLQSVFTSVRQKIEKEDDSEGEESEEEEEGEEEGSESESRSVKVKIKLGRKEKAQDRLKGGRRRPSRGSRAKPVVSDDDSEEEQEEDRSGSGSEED

Dmax [2]	SMILES	BRM HiBit Degradation Maximum (%) [1]
< 50%	Cc1nc2cccc(NCCCCCCNC(=O)C34CC(COc5cc(-c6ccccc6O)nnc5N)(C3)C4)c2c(=O)n1C1CCC(=O)NC1=O (stereo not drawn) [Compound 67, 3-(((3-amino-6-(2-hydroxyphenyl)pyridazin-4-yl)oxy)methyl)-N-(6-((3-(2,6-dioxopiperidin-3-yl)-2-methyl-4-oxo-3,4-dihydroquinazolin-5-yl)amino)hexyl)bicyclo[1.1.1]pentane-1-carboxamide]	C (“C” indicates maximum degradation < 50%)
< 50%	Nc1nnc(-c2ccccc2O)cc1OCC12CC(C(=O)NCCCCCCCCNc3ccc4c(c3)C(=O)N(C3CCC(=O)NC3=O)C4=O)(C1)C2 (stereo not drawn) [Compound 65, 3-(((3-amino-6-(2-hydroxyphenyl)pyridazin-4-yl)oxy)methyl)-N-(8-((2-(2,6-dioxopiperidin-3-yl)-1,3-dioxoisoindolin-5-yl)amino)octyl)bicyclo[1.1.1]pentane-1-carboxamide]	C (“C” indicates maximum degradation < 50%)
< 50%	Cc1ncsc1-c1ccc(CNC(=O)[C@@H]2C[C@@H](O)CN2C(=O)[C@@H](NC(=O)CCCCCCCCCCC(=O)NC23CC(CCOc4cc(-c5ccccc5O)nnc4N)(C2)C3)C(C)(C)C)cc1 [Compound 47, N1-(3-(2-((3-amino-6-(2-hydroxyphenyl)pyridazin-4-yl)oxy)ethyl)bicyclo[1.1.1]pentan-1-yl)-N12-((S)-1-((2S,4R)-4-hydroxy-2-((4-(4-methylthiazol-5-yl)benzyl)carbamoyl)pyrrolidin-1-yl)-3,3-dimethyl-1-oxobutan-2-yl)dodecanediamide]	B (“B” indicates maximum degradation ≥ 50%)
< 50%	Nc1nnc(-c2ccccc2O)cc1OCC12CC(C(=O)N3CCN(CCCC#Cc4ccc5c(c4)C(=O)N(C4CCC(=O)NC4=O)C5=O)CC3)(C1)C2 (stereo not drawn) [Compound 51, 5-(5-(4-(3-(((3-amino-6-(2-hydroxyphenyl)pyridazin-4-yl)oxy)methyl)bicyclo[1.1.1]pentane-1-carbonyl)piperazin-1-yl)pent-1-yn-1-yl)-2-(2,6-dioxopiperidin-3-yl)isoindoline-1,3-dione]	C (“C” indicates maximum degradation < 50%)
< 50%	Nc1nnc(-c2ccccc2O)cc1OCC12CC(C(=O)NCCCCNc3ccc4c(c3)C(=O)N(C3CCC(=O)NC3=O)C4=O)(C1)C2 (stereo not drawn) [Compound 62, formic acid]	C (“C” indicates maximum degradation < 50%)
< 50%	Nc1nnc(-c2ccccc2O)cc1OCC12CC(C(=O)N3CCN(c4ccc5c(c4)C(=O)N(C4CCC(=O)NC4=O)C5=O)CC3)(C1)C2 (stereo not drawn) [Compound 54, 5-(4-(3-(((3-amino-6-(2-hydroxyphenyl)pyridazin-4-yl)oxy)methyl)bicyclo[1.1.1]pentane-1-carbonyl)piperazin-1-yl)-2-(2,6-dioxopiperidin-3-yl)isoindoline-1,3-dione]	C (“C” indicates maximum degradation < 50%)
< 50%	Nc1nnc(-c2ccccc2O)cc1OCC12CC(C(=O)NCCCCCCCCNc3cccc4c3CN(C3CCC(=O)NC3=O)C4=O)(C1)C2 (stereo not drawn) [Compound 58, 3-(((3-amino-6-(2-hydroxyphenyl)pyridazin-4-yl)oxy)methyl)-N-(8-((2-(2,6-dioxopiperidin-3-yl)-1-oxoisoindolin-4-yl)amino)octyl)bicyclo[1.1.1]pentane-1-carboxamide]	C (“C” indicates maximum degradation < 50%)
< 50%	Nc1nnc(-c2ccccc2O)cc1OCC12CC(C(=O)NCCCCCCCCNc3cccc4c3C(=O)N(C3CCC(=O)NC3=O)C4=O)(C1)C2 (stereo not drawn) [Compound 57, 3-(((3-amino-6-(2-hydroxyphenyl)pyridazin-4-yl)oxy)methyl)-N-(8-((2-(2,6-dioxopiperidin-3-yl)-1,3-dioxoisoindolin-4-yl)amino)octyl)bicyclo[1.1.1]pentane-1-carboxamide]	C (“C” indicates maximum degradation < 50%)
< 50%	Nc1nnc(-c2ccccc2O)cc1OCC12CC(CNC(=O)CCCCOc3cccc4c3C(=O)N(C3CCC(=O)NC3=O)C4=O)(C1)C2 (stereo not drawn) [Compound 3, N-[[3-([[3-amino-6-(2-hydroxyphenyl)pyridazin-4-yl]oxy]methyl)bicyclo[1.1.1]pentan-1-yl]methyl]-5-[[2-(2,6-dioxopiperidin-3-yl)-1,3-dioxoisoindol-4-yl]oxy]pentanamide]	C (“C” indicates maximum degradation < 50%)
< 50%	Cc1ncsc1-c1ccc(CNC(=O)[C@@H]2C[C@@H](O)CN2C(=O)[C@@H](NC(=O)COCCOCCOCCOCC(=O)NCC23CC(COc4cc(-c5ccccc5O)nnc4N)(C2)C3)C(C)(C)C)cc1 [Compound 36, N1-((3-(((3-amino-6-(2-hydroxyphenyl)pyridazin-4-yl)oxy)methyl)bicyclo[1.1.1]pentan-1-yl)methyl)-N14-((S)-1-((2S,4R)-4-hydroxy-2-((4-(4-methylthiazol-5-yl)benzyl)carbamoyl)pyrrolidin-1-yl)-3,3-dimethyl-1-oxobutan-2-yl)-3,6,9,12-tetraoxatetradecanediamide]	C (“C” indicates maximum degradation < 50%)
< 50%	Nc1nnc(-c2ccccc2O)cc1OCC12CC(C(=O)NCCOCCOCCOCCNC(=O)COc3cccc4c3C(=O)N(C3CCC(=O)NC3=O)C4=O)(C1)C2 (stereo not drawn) [Compound 92, 3-(((3-amino-6-(2-hydroxyphenyl)pyridazin-4-yl)oxy)methyl)-N-(1-((2-(2,6-dioxopiperidin-3-yl)-1,3-dioxoisoindolin-4-yl)oxy)-2-oxo-6,9,12-trioxa-3-azatetradecan-14-yl)bicyclo[1.1.1]pentane-1-carboxamide]	C (“C” indicates maximum degradation < 50%)
< 50%	Nc1nnc(-c2ccccc2O)cc1OCCC12CC(NC(=O)CCCCCCCCNc3ccc4c(c3)C(=O)N(C3CCC(=O)NC3=O)C4=O)(C1)C2 (stereo not drawn) [Compound 25, N-[3-(2-[[3-amino-6-(2-hydroxyphenyl)pyridazin-4-yl]oxy]ethyl)bicyclo[1.1.1]pentan-1-yl]-9-[[2-(2,6-dioxopiperidin-3-yl)-1,3-dioxoisoindol-5-yl]amino]nonanamide]	C (“C” indicates maximum degradation < 50%)
< 50%	Cc1ncsc1-c1ccc(CNC(=O)[C@@H]2C[C@@H](O)CN2C(=O)[C@@H](NC(=O)CCCCCCCCCNC(=O)C23CC(COc4cc(-c5ccccc5O)nnc4N)(C2)C3)C(C)(C)C)cc1 [Compound 72, (2S,4R)-1-((S)-2-(10-(3-(((3-amino-6-(2-hydroxyphenyl)pyridazin-4-yl)oxy)methyl)bicyclo[1.1.1]pentane-1-carboxamido)decanamido)-3,3-dimethylbutanoyl)-4-hydroxy-N-(4-(4-methylthiazol-5-yl)benzyl)pyrrolidine-2-carboxamide]	B (“B” indicates maximum degradation ≥ 50%)
< 50%	Nc1nnc(-c2ccccc2O)cc1OCCC12CC(NC(=O)CCCCCCCCNc3cccc4c3C(=O)N(C3CCC(=O)NC3=O)C4=O)(C1)C2 (stereo not drawn) [Compound 23, N-[3-(2-[[3-amino-6-(2-hydroxyphenyl)pyridazin-4-yl]oxy]ethyl)bicyclo[1.1.1]pentan-1-yl]-9-[[2-(2,6-dioxopiperidin-3-yl)-1,3-dioxoisoindol-4-yl]amino]nonanamide]	C (“C” indicates maximum degradation < 50%)
< 50%	Nc1nnc(-c2ccccc2O)cc1OCC12CC(C(=O)NCCCCS(=O)(=O)CCCNc3cccc4c3C(=O)N(C3CCC(=O)NC3=O)C4=O)(C1)C2 (stereo not drawn) [Compound 73, 3-(((3-amino-6-(2-hydroxyphenyl)pyridazin-4-yl)oxy)methyl)-N-(4-((3-((2-(2,6-dioxopiperidin-3-yl)-1,3-dioxoisoindolin-4-yl)amino)propyl)sulfonyl)butyl)bicyclo[1.1.1]pentane-1-carboxamide]	C (“C” indicates maximum degradation < 50%)
< 50%	Cc1ncsc1-c1ccc(CNC(=O)[C@@H]2C[C@@H](O)CN2C(=O)[C@@H](NC(=O)C23CC(COc4cc(-c5ccccc5O)nnc4N)(C2)C3)C(C)(C)C)cc1 [Compound 105, (2S,4R)-1-((S)-2-(3-(((3-amino-6-(2-hydroxyphenyl)pyridazin-4-yl)oxy)methyl)bicyclo[1.1.1]pentane-1-carboxamido)-3,3-dimethylbutanoyl)-4-hydroxy-N-(4-(4-methylthiazol-5-yl)benzyl)pyrrolidine-2-carboxamide]	C (“C” indicates maximum degradation < 50%)
< 50%	Nc1nnc(-c2ccccc2O)cc1OCC12CC(C(=O)NCCCCCNc3ccc4c(c3)C(=O)N(C3CCC(=O)NC3=O)C4=O)(C1)C2 (stereo not drawn) [Compound 63, 3-(((3-amino-6-(2-hydroxyphenyl)pyridazin-4-yl)oxy)methyl)-N-(5-((2-(2,6-dioxopiperidin-3-yl)-1,3-dioxoisoindolin-5-yl)amino)pentyl)bicyclo[1.1.1]pentane-1-carboxamide; formic acid]	C (“C” indicates maximum degradation < 50%)
< 50%	Nc1nnc(-c2ccccc2O)cc1OCCC12CC(NC(=O)CCCCCCCCCCNc3ccc4c(c3)C(=O)N(C3CCC(=O)NC3=O)C4=O)(C1)C2 (stereo not drawn) [Compound 26, N-[3-(2-[[3-amino-6-(2-hydroxyphenyl)pyridazin-4-yl]oxy]ethyl)bicyclo[1.1.1]pentan-1-yl]-11-[[2-(2,6-dioxopiperidin-3-yl)-1,3-dioxoisoindol-5-yl]amino]undecanamide]	C (“C” indicates maximum degradation < 50%)
